# “Also recorded” adds a separate entry of the source. Read-outs that look alike come from different tables or passages of the source.
# Experiments:
# [1] = biological target: T1, E. coli Trx (Escherichia coli, UniProt P0AA25); assay type: cell-based; details: Ag^+ or ebselen alone
# T1 construct: endogenous in cells; host or cells: E. coli DHB4
# [2] = test system: E. coli DHB4; experiment: ROS production, H2DCF-DA staining, flow cytometry; assay type: cell-based, Escherichia coli; details: 5 μM Ag^+ alone or 20 μM ebselen alone
# Protocol: (§1) The E. coli DHB4 cells were grown till the absorbance at OD600 nm of 0.4 in LB medium, and the bacterial cells were treated with different combinations of ebselen and AgNO3 for 10 min. To analyze the amount of ROS production in the bacteria, cells were harvested by centrifugation at 6,000 rpm for 5 min and thoroughly washed 3 times with PBS, and stained with 5 μM H2DCF-DA for 20 min. After the incubation, cells were spin down and re-suspended in PBS, and the ROS production was quantified by flow cytometry (CyAn adp, Beckman coulter).
# as §1, with “silver and antibiotics in” for “different”, “combinations” for “combinations of ebselen and AgNO3”, “spun” for “spin”, “(CyAnadp,” for “(CyAn adp,”
# [3] = test system: E. coli DHB4; experiment: E. coli DHB4 growth in micro-well plates, OD600 nm, 16 h; assay type: cell-based, Escherichia coli
# Protocol: The effect of silver nitrate with ebselen in combination on the growth of Gram-negative model bacteria, E. coli, was investigated in the microplates. DHB4 overnight cultures were diluted 1:1000 times in Luria-Bertani (LB) medium, and treated with ionic silver (Ag^+) as a nitrate salt (AgNO3) for 16 h.
# E. coli DHB4 cells overnight cultures were diluted 1:1000 times in Luria-Bertani (LB) medium and treated with serial concentrations of AgNO3 and/or ebselen for 16 h. The cell viability was determined by measuring the absorbance at 600 nm. The culture treated with 0.8% (v/v) DMSO was used as a control.
# E. coli DHB4 cells were grown until an OD600 nm of 0.4, and treated with serial dilutions of ebselen (0, 2, 4, 8 μM) for 16 h. The cell viability was determined by measuring the absorbance at 600 nm. The culture treated with 0.8% (v/v) DMSO was used as a control.
# [4] = test system: E. coli DHB4 WT; experiment: MIC of silver and ebselen on E. coli DHB4 redox phenotypes; assay type: cell-based, Escherichia coli; details: 24 h; for MIC: Escherichia coli, DHB4WT, read-out: MIC of ebselen in the presence of silver
# Protocol: (§2) Since Trx and GSH/Grx are major thiol-dependent systems, investigated were the effects of Ag^+ with ebselen in combination on Trx or GSH system-deficient E. coli redox mutants.
# (§3) Serial dilutions of ebselen and AgNO3 were added to the individual wells. The minimum inhibitory concentration (MIC) was determined after 24 h culture at 37° C.
# [5] = test system: E. coli DHB4 grxA^−trxA^−; experiment: microbe, parasite or virus in culture; assay type: cell-based, Escherichia coli; details: 24 h; for MIC: Escherichia coli, read-out: MIC of ebselen in the presence of silver
# Protocol: as §2, §3
# [6] = test system: E. coli DHB4 gor^−; experiment: microbe, parasite or virus in culture; assay type: cell-based, Escherichia coli; details: 24 h; for MIC: Escherichia coli, read-out: MIC of ebselen in the presence of silver
# Protocol: as §2, §3
# [7] = test system: E. coli DHB4 gshA^−; experiment: microbe, parasite or virus in culture; assay type: cell-based, Escherichia coli; details: for MIC: read-out: MIC of ebselen in the presence of silver
# Protocol: as §2, §3
# [8] = test system: E. coli DHB4 trxC^−; experiment: microbe, parasite or virus in culture; assay type: cell-based, Escherichia coli; details: for MIC: read-out: MIC of ebselen in the presence of silver
# Protocol: as §2, §3
# [9] = test system: E. coli DHB4 trxA^−B^−C^−; experiment: microbe, parasite or virus in culture; assay type: cell-based, Escherichia coli; details: 24 h; for MIC: Escherichia coli, read-out: MIC of ebselen in the presence of silver
# Protocol: as §2, §3
# [10] = test system: E. coli DHB4 trxA^−gshA^−; experiment: microbe, parasite or virus in culture; assay type: cell-based, Escherichia coli; details: for MIC: read-out: MIC of ebselen in the presence of silver
# Protocol: as §2, §3
# [11] = test system: E. coli DHB4 gor^−grxA^−B^−C^−; experiment: microbe, parasite or virus in culture; assay type: cell-based, Escherichia coli; details: 24 h; for MIC: Escherichia coli, read-out: MIC of ebselen in the presence of silver
# Protocol: as §2, §3
# [12] = test system: E. coli DHB4 trxA^−; experiment: microbe, parasite or virus in culture; assay type: cell-based, Escherichia coli; details: 24 h; for MIC: Escherichia coli, read-out: MIC of ebselen in the presence of silver
# Protocol: as §2, §3
# [13] = test system: E. coli DHB4 trxB^−; experiment: microbe, parasite or virus in culture; assay type: cell-based, Escherichia coli; details: 24 h; for MIC: Escherichia coli, read-out: MIC of ebselen in the presence of silver
# Protocol: as §2, §3
# [14] = test system: E. coli DHB4 oxyR^−; experiment: microbe, parasite or virus in culture; assay type: cell-based, Escherichia coli; details: for MIC: read-out: MIC of ebselen in the presence of silver
# Protocol: as §2
# One major function of GSH and Trx systems is to scavenge ROS to keep cellular redox balance and protect against oxidative stress. The inhibition of the Trx system and depletion of GSH may responsible for the elevation of ROS.
# as §3
# [15] = test system: GSH; experiment: GSH amount in treated E. coli cell extracts, GR-coupled DTNB reduction; assay type: cell-based, Escherichia coli
# [16] = 5 μM Ag^+ alone or 20 μM ebselen alone, compared with control
# T1 sequence (P0AA25 2-109): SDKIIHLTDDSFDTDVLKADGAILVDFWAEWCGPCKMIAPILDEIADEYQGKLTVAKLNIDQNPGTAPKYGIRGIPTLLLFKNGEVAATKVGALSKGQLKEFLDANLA
smiles,measurement,setting,value
"O=c1c2ccccc2[se]n1-c1ccccc1 [ebselen, 2-phenyl-1,2-benzisoselenazol-3(2H)-one]",Trx activities in cell extracts,[1],not influenced
same,ROS concentrations,[2],did not change ROS concentrations
same,effect on E. coli growth,"[3]; ebselen alone (2, 4, 8 μM), 16 h",no effects on bacterial growth; also recorded: no effect on the growth of E. coli
same,MIC,[4]; Silver 0 μM,80 µM
same,MIC,[4]; Silver 0.625 μM,8 µM
same,MIC,[4]; Silver 1.25 μM,4 µM
same,MIC,[4]; Silver 2.5 μM,4 µM
same,MIC,[4]; Silver 5 μM,2 µM
same,MIC,[4]; Silver 10 μM,1 µM
same,MIC,[4]; Silver 20 μM,0.5 µM
same,MIC,[5]; Silver 0 μM,40 µM
same,MIC,[5]; Silver 5 μM,1 µM
same,MIC,[5]; Silver 10 μM,0.5 µM
same,MIC,[6]; Silver 0 μM,80 µM
same,MIC,[6]; Silver 5 μM,1 µM
same,MIC,[6]; Silver 10 μM,1 µM
same,MIC,[6]; Silver 20 μM,0.5 µM
same,MIC,"[7]; Escherichia coli, 24 h, Silver 0 μM, gshA^−, 24 h",40 µM
same,MIC,"[7]; Escherichia coli, 24 h, Silver 5 μM, gshA^−, 24 h",1 µM
same,MIC,"[7]; Escherichia coli, 24 h, Silver 10 μM, gshA^−, 24 h",0.5 µM
same,MIC,"[7]; Escherichia coli, 24 h",4 µM
same,MIC,[7],2 µM
same,MIC,"[8]; Escherichia coli, 24 h, Silver 0 μM, trxC^−, 24 h",80 µM
same,MIC,"[8]; Escherichia coli, 24 h, Silver 5 μM, trxC^−, 24 h",2 µM
same,MIC,"[8]; Escherichia coli, 24 h, Silver 10 μM, trxC^−, 24 h",1 µM
same,MIC,"[8]; Escherichia coli, 24 h, Silver 20 μM, trxC^−, 24 h",0.5 µM
same,MIC,"[8]; Escherichia coli, 24 h",8 µM
same,MIC,[8],4 µM
same,MIC,[9]; Silver 0 μM,80 µM
same,MIC,[9]; Silver 5 μM,1 µM
same,MIC,[9]; Silver 10 μM,0.5 µM
same,MIC,[9]; Silver 20 μM,0.5 µM
same,MIC,"[10]; Escherichia coli, 24 h, Silver 0 μM, trxA^−gshA^−, 24 h",40 µM
same,MIC,"[10]; Escherichia coli, 24 h, Silver 5 μM, trxA^−gshA^−, 24 h",1 µM
same,MIC,"[10]; Escherichia coli, 24 h, Silver 10 μM, trxA^−gshA^−, 24 h",0.5 µM
same,MIC,"[10]; Escherichia coli, 24 h",4 µM
same,MIC,[10],2 µM
same,MIC,[11]; Silver 0 μM,40 µM
same,MIC,[11]; Silver 5 μM,1 µM
same,MIC,[11]; Silver 10 μM,0.5 µM
same,MIC,[12]; Silver 0 μM,80 µM
same,MIC,[12]; Silver 5 μM,1 µM
same,MIC,[12]; Silver 10 μM,1 µM
same,MIC,[12]; Silver 20 μM,0.5 µM
same,MIC,[13]; Silver 0 μM,80 µM
same,MIC,[13]; Silver 5 μM,1 µM
same,MIC,[13]; Silver 10 μM,0.5 µM
same,MIC,[13]; Silver 20 μM,0.5 µM
same,MIC,"[14]; Escherichia coli, 24 h, Silver 0 μM, oxyR^−, 24 h",40 µM
same,MIC,"[14]; Escherichia coli, 24 h, Silver 5 μM, oxyR^−, 24 h",1 µM
same,MIC,"[14]; Escherichia coli, 24 h, Silver 10 μM, oxyR^−, 24 h",0.5 µM
same,MIC,"[14]; Escherichia coli, 24 h",4 µM
same,MIC,[14],2 µM
same,GSH levels,[15]; [16],neither 5 μM Ag^+ nor 20 μM ebselen modulated GSH levels
same,GSH levels,[15]; ebselen alone at 80 and 40 μM,reduced GSH levels
"O=[N+]([O-])[O-].[Ag+] [silver, silver nitrate]",Trx activities in cell extracts,[1],not influenced
same,ROS concentrations,[2],did not change ROS concentrations
same,minimal inhibition concentration (MIC) of Ag^+,"[3]; Ag^+ alone, 16 h treatment",42 µM
same,MIC of Ag^+,"[3]; with 2 μM ebselen, 16 h treatment",4.2 µM
same,MIC of silver in the presence of ebselen,[4]; Ebselen 0 μM,40 µM
same,MIC of silver in the presence of ebselen,[4]; Ebselen 1 μM,10 µM
same,MIC of silver in the presence of ebselen,[4]; Ebselen 2 μM,5 µM
same,MIC of silver in the presence of ebselen,[4]; Ebselen 4 μM,1.25 µM
same,MIC of silver in the presence of ebselen,[5]; Ebselen 0 μM,20 µM
same,MIC of silver in the presence of ebselen,[5]; Ebselen 1 μM,10 µM
same,MIC of silver in the presence of ebselen,[5]; Ebselen 2 μM,2.5 µM
same,MIC of silver in the presence of ebselen,[5]; Ebselen 4 μM,0.625 µM
same,MIC of silver in the presence of ebselen,[6]; Ebselen 0 μM,40 µM
same,MIC of silver in the presence of ebselen,[6]; Ebselen 1 μM,10 µM
same,MIC of silver in the presence of ebselen,[6]; Ebselen 2 μM,5 µM
same,MIC of silver in the presence of ebselen,[6]; Ebselen 4 μM,1.25 µM
same,MIC of silver in the presence of ebselen,"[7]; Ebselen 0 μM, gshA^−, 24 h",20 µM
same,MIC of silver in the presence of ebselen,"[7]; Ebselen 1 μM, gshA^−, 24 h",5 µM
same,MIC of silver in the presence of ebselen,"[7]; Ebselen 2 μM, gshA^−, 24 h",2.5 µM
same,MIC of silver in the presence of ebselen,"[7]; Ebselen 4 μM, gshA^−, 24 h",0.625 µM
same,MIC of silver in the presence of ebselen,"[8]; Ebselen 0 μM, trxC^−, 24 h",40 µM
same,MIC of silver in the presence of ebselen,"[8]; Ebselen 1 μM, trxC^−, 24 h",10 µM
same,MIC of silver in the presence of ebselen,"[8]; Ebselen 2 μM, trxC^−, 24 h",5 µM
same,MIC of silver in the presence of ebselen,"[8]; Ebselen 4 μM, trxC^−, 24 h",1.25 µM
same,MIC of silver in the presence of ebselen,[9]; Ebselen 0 μM,40 µM
same,MIC of silver in the presence of ebselen,[9]; Ebselen 1 μM,10 µM
same,MIC of silver in the presence of ebselen,[9]; Ebselen 2 μM,2.5 µM
same,MIC of silver in the presence of ebselen,[9]; Ebselen 4 μM,1.25 µM
same,MIC of silver in the presence of ebselen,"[10]; Ebselen 0 μM, trxA^−gshA^−, 24 h",20 µM
same,MIC of silver in the presence of ebselen,"[10]; Ebselen 1 μM, trxA^−gshA^−, 24 h",5 µM
same,MIC of silver in the presence of ebselen,"[10]; Ebselen 2 μM, trxA^−gshA^−, 24 h",2.5 µM
same,MIC of silver in the presence of ebselen,"[10]; Ebselen 4 μM, trxA^−gshA^−, 24 h",0.625 µM
same,MIC of silver in the presence of ebselen,[11]; Ebselen 0 μM,20 µM
same,MIC of silver in the presence of ebselen,[11]; Ebselen 1 μM,10 µM
same,MIC of silver in the presence of ebselen,[11]; Ebselen 2 μM,2.5 µM
same,MIC of silver in the presence of ebselen,[11]; Ebselen 4 μM,0.625 µM
same,MIC of silver in the presence of ebselen,[12]; Ebselen 0 μM,40 µM
same,MIC of silver in the presence of ebselen,[12]; Ebselen 1 μM,10 µM
same,MIC of silver in the presence of ebselen,[12]; Ebselen 2 μM,2.5 µM
same,MIC of silver in the presence of ebselen,[12]; Ebselen 4 μM,1.25 µM
same,MIC of silver in the presence of ebselen,[13]; Ebselen 0 μM,40 µM
same,MIC of silver in the presence of ebselen,[13]; Ebselen 1 μM,10 µM
same,MIC of silver in the presence of ebselen,[13]; Ebselen 2 μM,2.5 µM
same,MIC of silver in the presence of ebselen,[13]; Ebselen 4 μM,0.625 µM
same,MIC of silver in the presence of ebselen,"[14]; Ebselen 0 μM, oxyR^−, 24 h",20 µM
same,MIC of silver in the presence of ebselen,"[14]; Ebselen 1 μM, oxyR^−, 24 h",5 µM
same,MIC of silver in the presence of ebselen,"[14]; Ebselen 2 μM, oxyR^−, 24 h",1.25 µM
same,MIC of silver in the presence of ebselen,"[14]; Ebselen 4 μM, oxyR^−, 24 h",0.625 µM
same,GSH levels,[15]; [16],neither 5 μM Ag^+ nor 20 μM ebselen modulated GSH levels

# — US10653717B2, “Antibiotic compositions” (priority 2016, dated 2020)
